Laboratory results: patent US20220265769A1, “COMPOSITIONS AND METHODS OF TREATMENT FOR BREAST CANCER INVOLVING A NOVEL CAPER?-MLL1 COMPLEX” (Geisinger Health, priority 2019, published 2022)

Key:
[1] = target: T1, RBM39 (CAPERα)/MLL1 complex (Homo sapiens, UniProt Q03164); assay: Anti-RBM39 co-immunoprecipitation of MLL1 complex members from peptide-treated breast cancer cell lysates; format: cell-based
T1 construct: endogenous in cells; lines from ATCC
From the text: (§1) FIG. 31. Key structural domains mediate the RRM3-MLL1 interaction. A) Modeling of RRM3 domain structure (amino acids: 441 to 510; SEQ ID NO: 13) using the SWISS MODEL tool and conserved domains by sequence alignment with vertebrate RRM-domaining proteins (https://www.ncbi.nlm.nih.gov/Structure/cdd/cddsrv.cgi?uid=240731) B) Top: anti-MLL1 IB to test the interaction between MLL1 and myc-tagged, deletion mutant RRM3 proteins in HEK293 cells. Bottom: IB/IP to quantitate myc-tagged proteins in lysates from HEK293 overexpressing wild type and microdeleted RRM3 domains. C) Bar graphs quantitating % viable cells after peptide treatments (peptides are numbered 1-5 as in FIG. 10) for 4 days. […] Lanes are labeled with peptide names. Arrowhead highlights signal from the entry of CPP. […] F) Anti-RBM39 immunoprecipitated samples from Neg.CPP (SEQ ID NO: 12), CPP-L491-L508 (SEQ ID NO: 24), CPP-G441-V460 (SEQ ID NO: 20), and CPP-E445-V476 (SEQ ID NO: 15) treated T47D lysates assayed by immunoblotting with antibodies against MLL1, ASH2L, RbBP5. […] G) Representative co-immunoprecipitations to show the interaction between RBM39 and its RBP interactors in Neg.CPP and CPP-E445-V476 treated T47D cell lysates. […]

PME cells = assay: Crystal violet assay / cell counts of primary mammary epithelial cells (PMEs) treated with cell penetrating peptides; format: cell-based, human; conditions: synthetic peptides at 5 μM
Experimental: Crystal violet assay/optical density method of cell quantitation: 5×10^5 cells were plated per well in 6-well tissue culture plates. At times indicated cells were washed with PBS and fixed for 10 minutes in a 10% formalin solution. Cells were then rinsed with distilled water and subsequently stained with 100 μl 0.1% crystal violet solution for 30 min. Stained cells were rinsed with water to remove the excess traces of the staining solution. Cell-associated crystal violet dye was extracted with 500 μl of 10% acetic acid. Aliquots were collected and optical density was measured at 590 nm wavelength. Each point on the curve shown represents 3 independent wells.
(§2) Cell counts for CPP treatments: Cells were plated in 6-well dishes and incubated with 5 μM concentration of peptides. At days noted, cells were trypsinized and counted using a hemocytometer.
Whether recombinant RRM3 conjugated with the Penetratin cell penetrating peptide (Dupont E, et al., Methods Mol Biol. 1324:29-37 (2015)) (FIGS. 9A, B) affects growth of T47D and PME cells was tested. Equal numbers of PME and T47D cells were seeded and incubated with 5 μM peptide in media for 72 hrs. […] Compared to CPP-coupled RRM3, CPP-RRM1 and RRM3 had no effect (FIGS. 9H-N). […]

[2] = target: T2, RBM39 and RNA binding proteins (RBPs) (Homo sapiens, UniProt Q14498); assay: Co-immunoprecipitation of RBM39 and its RBP interactors in peptide-treated T47D cell lysates; format: cell-based; conditions: versus Neg.CPP
T2 construct: endogenous in cells; host or cells: T47D
T2 sequence (Q14498 2-530 limits assumed): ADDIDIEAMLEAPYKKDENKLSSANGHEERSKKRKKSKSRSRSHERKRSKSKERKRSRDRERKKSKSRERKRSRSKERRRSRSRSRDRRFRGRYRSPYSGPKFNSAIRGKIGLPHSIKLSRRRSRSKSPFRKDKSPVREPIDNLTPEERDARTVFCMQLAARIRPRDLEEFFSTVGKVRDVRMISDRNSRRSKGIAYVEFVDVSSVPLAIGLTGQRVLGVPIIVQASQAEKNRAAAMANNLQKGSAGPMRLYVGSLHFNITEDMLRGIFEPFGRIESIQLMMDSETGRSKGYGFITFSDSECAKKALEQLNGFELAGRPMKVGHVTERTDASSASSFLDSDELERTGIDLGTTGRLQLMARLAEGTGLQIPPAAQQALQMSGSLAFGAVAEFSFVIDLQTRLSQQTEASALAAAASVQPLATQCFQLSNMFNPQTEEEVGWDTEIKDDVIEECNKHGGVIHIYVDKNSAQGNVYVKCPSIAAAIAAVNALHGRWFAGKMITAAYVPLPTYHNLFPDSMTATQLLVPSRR
From the text: as §1

[3] = tested on: breast cancer cell subtypes; assay: Total cell number and viability of an array of breast cancer cell subtypes treated with synthetic RRM3-derived peptides; format: cell-based, human; conditions: synthetic peptides at 5 μM; for proliferation (total cell number) of breast cancer cell subtypes: 72 hours
Experimental: FIG. 10. RRM3-derived CPPs disrupts growth of multiple breast cancer cell subtypes but has no effect on normal cells. A) Schematic of RRM3 amino acids 441-510 (SEQ ID NO: 13). B) Bars represent the peptide regions used to generate CPPs based on deletion results in FIG. 31. C) Amino acid sequences of synthetic peptide: Penetratin, His tag and RRM3-derived peptide. D) Representative images of crystal violet stained breast cancer cells as listed at top, taken after 72 hours days of treatment with synthetic peptides at 5 μM. E) Quantification of total cell numbers of different cell types and peptide (1-5) treatments.
FIG. 31. Key structural domains mediate the RRM3-MLL1 interaction. A) Modeling of RRM3 domain structure (amino acids: 441 to 510; SEQ ID NO: 13) using the SWISS MODEL tool and conserved domains by sequence alignment with vertebrate RRM-domaining proteins (https://www.ncbi.nlm.nih.gov/Structure/cdd/cddsrv.cgi?uid=240731) B) Top: anti-MLL1 IB to test the interaction between MLL1 and myc-tagged, deletion mutant RRM3 proteins in HEK293 cells. Bottom: IB/IP to quantitate myc-tagged proteins in lysates from HEK293 overexpressing wild type and microdeleted RRM3 domains. C) Bar graphs quantitating % viable cells after peptide treatments (peptides are numbered 1-5 as in FIG. 10) for 4 days. […] Lanes are labeled with peptide names. Arrowhead highlights signal from the entry of CPP. […] F) Anti-RBM39 immunoprecipitated samples from Neg.CPP (SEQ ID NO: 12), CPP-L491-L508 (SEQ ID NO: 24), CPP-G441-V460 (SEQ ID NO: 20), and CPP-E445-V476 (SEQ ID NO: 15) treated T47D lysates assayed by immunoblotting with antibodies against MLL1, ASH2L, RbBP5. […] G) Representative co-immunoprecipitations to show the interaction between RBM39 and its RBP interactors in Neg.CPP and CPP-E445-V476 treated T47D cell lysates. […] Immunoprecipitations and Immunoblots assaying RBM39-MLL1 interaction in neg.CPP and CPP-E445-V476 treated T47D, HCC1954, MDA-MB231 and ZR7530 cells show reduced interaction between MLL1 and RBM39 in vivo. (arrows highlight decreased interaction).
as §2
Generation of synthetic peptides from the RRM3 domain: RRM3-derived peptides were commercially synthesized by Abm at purity >80%. Peptides were dissolved in 1λPBS at 1 mg/ml and used at 5 μM in low serum (1%) RPMI media.
As per UniProt, RRM3 spans amino acids (aa) 445-508 (SEQ ID NO: 34) and SWISS tool predicts 2 α helices and 4 β sheets that are conserved in vertebrate RRM-containing proteins (FIG. 31A). A series of myc-tag microdeleted constructs were designed to identify regions required for MLL1 binding. […]

T1 sequence (Q03164 1-2718 limits assumed): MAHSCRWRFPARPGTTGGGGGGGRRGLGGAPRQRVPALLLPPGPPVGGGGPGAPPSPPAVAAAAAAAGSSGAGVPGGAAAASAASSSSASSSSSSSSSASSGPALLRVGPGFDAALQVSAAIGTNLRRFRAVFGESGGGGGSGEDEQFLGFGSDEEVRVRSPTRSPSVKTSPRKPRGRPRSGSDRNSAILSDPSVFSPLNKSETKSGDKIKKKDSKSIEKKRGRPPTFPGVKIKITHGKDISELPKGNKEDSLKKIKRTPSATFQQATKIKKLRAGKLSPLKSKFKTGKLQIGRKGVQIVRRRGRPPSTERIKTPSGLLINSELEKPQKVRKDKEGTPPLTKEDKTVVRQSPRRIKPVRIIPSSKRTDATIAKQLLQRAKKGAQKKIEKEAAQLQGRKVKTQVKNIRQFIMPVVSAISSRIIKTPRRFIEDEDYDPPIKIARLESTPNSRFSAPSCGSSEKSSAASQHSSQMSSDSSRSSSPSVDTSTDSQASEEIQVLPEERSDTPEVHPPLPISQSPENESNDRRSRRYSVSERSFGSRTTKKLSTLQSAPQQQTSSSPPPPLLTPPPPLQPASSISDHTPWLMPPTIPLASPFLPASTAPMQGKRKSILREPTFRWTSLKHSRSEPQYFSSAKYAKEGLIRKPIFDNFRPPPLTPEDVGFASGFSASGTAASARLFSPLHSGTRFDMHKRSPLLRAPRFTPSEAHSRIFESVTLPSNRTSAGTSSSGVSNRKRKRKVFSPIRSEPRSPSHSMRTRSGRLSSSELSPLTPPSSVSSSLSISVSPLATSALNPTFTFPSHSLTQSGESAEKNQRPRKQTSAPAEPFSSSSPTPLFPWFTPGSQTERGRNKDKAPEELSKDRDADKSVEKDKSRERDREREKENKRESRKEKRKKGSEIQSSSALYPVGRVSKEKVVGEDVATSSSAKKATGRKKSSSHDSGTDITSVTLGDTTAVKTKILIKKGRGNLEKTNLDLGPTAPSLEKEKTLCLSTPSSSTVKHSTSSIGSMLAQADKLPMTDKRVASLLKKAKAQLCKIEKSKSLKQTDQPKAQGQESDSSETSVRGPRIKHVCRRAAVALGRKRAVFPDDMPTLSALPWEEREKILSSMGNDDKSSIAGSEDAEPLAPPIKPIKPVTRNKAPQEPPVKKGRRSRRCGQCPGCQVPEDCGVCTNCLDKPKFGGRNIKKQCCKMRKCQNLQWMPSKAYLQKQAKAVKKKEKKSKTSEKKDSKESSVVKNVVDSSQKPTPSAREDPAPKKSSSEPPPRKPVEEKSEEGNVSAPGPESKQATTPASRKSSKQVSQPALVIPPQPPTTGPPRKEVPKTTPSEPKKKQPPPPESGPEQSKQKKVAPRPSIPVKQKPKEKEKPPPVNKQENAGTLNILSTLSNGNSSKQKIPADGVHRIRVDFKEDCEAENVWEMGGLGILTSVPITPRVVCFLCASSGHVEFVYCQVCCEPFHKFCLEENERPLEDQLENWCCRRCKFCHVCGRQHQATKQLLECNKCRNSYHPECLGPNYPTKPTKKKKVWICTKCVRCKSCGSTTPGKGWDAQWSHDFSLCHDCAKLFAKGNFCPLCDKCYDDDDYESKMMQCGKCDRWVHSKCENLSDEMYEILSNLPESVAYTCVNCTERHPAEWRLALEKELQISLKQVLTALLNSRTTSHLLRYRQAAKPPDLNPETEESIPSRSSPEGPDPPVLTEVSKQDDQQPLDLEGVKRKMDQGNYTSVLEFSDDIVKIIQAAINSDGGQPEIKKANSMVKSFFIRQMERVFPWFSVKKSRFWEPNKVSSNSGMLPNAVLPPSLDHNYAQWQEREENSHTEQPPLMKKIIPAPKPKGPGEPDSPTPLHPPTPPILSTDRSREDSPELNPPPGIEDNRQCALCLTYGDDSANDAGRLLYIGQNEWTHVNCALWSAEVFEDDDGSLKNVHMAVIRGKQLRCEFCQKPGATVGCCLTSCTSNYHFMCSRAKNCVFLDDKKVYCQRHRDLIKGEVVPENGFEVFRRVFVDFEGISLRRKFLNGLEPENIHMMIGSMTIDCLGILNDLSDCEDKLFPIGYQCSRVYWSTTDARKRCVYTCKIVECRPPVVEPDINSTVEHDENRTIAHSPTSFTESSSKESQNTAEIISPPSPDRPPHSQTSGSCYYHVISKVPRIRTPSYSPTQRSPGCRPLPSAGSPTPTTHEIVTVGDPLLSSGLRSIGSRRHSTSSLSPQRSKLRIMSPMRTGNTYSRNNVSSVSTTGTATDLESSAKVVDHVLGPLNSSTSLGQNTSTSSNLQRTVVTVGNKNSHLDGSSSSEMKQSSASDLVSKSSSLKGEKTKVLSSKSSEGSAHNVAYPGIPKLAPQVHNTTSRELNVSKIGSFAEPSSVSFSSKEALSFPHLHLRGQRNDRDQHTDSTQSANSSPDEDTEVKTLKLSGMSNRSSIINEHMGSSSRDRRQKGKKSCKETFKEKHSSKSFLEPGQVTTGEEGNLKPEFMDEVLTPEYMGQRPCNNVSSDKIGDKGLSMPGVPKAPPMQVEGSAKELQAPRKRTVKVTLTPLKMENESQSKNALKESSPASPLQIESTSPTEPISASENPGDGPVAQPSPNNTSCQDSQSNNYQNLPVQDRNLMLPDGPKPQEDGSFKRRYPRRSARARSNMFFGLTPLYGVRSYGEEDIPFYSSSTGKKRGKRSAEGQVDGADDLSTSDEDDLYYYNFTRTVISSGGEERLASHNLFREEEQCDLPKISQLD
T1 sequence (Q03164 2719-3969 limits assumed): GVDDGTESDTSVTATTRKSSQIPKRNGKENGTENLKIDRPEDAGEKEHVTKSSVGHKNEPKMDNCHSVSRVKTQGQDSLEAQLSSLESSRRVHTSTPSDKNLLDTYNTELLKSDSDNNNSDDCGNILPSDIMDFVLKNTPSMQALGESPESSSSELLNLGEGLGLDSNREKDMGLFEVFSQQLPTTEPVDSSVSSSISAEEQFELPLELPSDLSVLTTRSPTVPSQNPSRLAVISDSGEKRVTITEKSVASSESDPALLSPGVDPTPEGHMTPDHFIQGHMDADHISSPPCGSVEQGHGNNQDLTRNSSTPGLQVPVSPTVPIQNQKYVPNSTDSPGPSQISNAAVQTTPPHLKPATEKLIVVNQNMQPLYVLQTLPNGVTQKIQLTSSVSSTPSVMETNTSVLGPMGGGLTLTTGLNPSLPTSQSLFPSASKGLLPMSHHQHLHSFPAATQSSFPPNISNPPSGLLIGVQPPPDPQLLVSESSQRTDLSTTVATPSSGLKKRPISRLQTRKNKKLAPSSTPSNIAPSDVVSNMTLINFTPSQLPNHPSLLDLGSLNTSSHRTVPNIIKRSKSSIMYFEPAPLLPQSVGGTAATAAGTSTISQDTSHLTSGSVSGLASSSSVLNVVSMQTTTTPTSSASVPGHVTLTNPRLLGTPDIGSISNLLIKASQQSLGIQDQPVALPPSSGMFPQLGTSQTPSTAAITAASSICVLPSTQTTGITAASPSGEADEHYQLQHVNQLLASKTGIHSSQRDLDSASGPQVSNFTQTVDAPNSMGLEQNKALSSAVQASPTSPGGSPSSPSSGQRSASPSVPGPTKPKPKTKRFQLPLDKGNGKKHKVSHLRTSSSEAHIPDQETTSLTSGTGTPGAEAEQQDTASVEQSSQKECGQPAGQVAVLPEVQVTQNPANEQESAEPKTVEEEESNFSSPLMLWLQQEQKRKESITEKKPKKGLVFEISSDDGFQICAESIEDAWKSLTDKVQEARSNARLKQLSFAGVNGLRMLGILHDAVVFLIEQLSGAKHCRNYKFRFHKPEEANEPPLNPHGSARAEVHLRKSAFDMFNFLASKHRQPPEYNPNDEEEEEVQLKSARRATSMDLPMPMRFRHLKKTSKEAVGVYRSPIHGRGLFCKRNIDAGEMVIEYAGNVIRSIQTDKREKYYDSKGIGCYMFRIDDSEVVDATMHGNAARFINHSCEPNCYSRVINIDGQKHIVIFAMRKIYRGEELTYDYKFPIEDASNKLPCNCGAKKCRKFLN
T1 sequence (Q15291 whole entry partner): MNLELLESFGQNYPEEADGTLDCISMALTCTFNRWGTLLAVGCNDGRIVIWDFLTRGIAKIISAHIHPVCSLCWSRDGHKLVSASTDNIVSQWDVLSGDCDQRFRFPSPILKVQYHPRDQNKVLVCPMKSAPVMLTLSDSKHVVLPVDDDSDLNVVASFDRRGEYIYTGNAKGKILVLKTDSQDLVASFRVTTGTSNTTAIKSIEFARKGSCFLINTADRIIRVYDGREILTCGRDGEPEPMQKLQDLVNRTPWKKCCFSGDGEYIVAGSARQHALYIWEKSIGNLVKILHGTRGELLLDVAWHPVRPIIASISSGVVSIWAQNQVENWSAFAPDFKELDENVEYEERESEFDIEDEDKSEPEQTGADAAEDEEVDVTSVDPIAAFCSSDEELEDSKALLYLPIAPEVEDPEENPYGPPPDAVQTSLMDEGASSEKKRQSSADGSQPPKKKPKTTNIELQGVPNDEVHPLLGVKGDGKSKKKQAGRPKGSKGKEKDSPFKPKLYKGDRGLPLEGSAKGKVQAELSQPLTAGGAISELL

Substance | endogenous interaction between RBM39 and MLL1 ([1]; T47D, HCC1954, MDA-MB231 and ZR7530 cells, versus neg.CPP) | interaction between RBM39 and MLL1 complex members (MLL1, ASH2L, RbBP5) ([1]; treated T47D lysates, anti-RBM39 immunoprecipitation) | effect on PMEs / normal cells (proliferation and viability) (PME cells) | interaction of RBM39 with RBPs [2] | proliferation (total cell number) of breast cancer cell subtypes [3] | viability (% viable cells) of breast cancer cell subtypes ([3]; 4 days)
CPP-E445-V476: synthetic RRM3-derived peptide E445-V476 with Penetratin and His tags (SEQ ID NO: 15; with His tag SEQ ID NO: 14) (RQIKIWFQNRRMKWKKGGEIKDDVIEECNKHGGVIHIYVDKNSAQGNVYVHHHHHH; RRM3-derived synthetic sequence) | disrupts the endogenous interaction | reduced the interaction | no effect | did not affect the interaction | pronounced effects on all subtypes | pronounced effects on all subtypes
RRM3 E445-V476: RRM3 E445-V476 peptide in the absence of Penetratin, negative control (SEQ ID NO: 2) (EIKDDVIEECNKHGGVIHIYVDKNSAQGNVYV; listed as Homo sapiens) |  |  |  |  | no effect | 
CPP-G441-V460: synthetic RRM3-derived peptide G441-V460 with Penetratin and His tags (SEQ ID NO: 20; with His tag SEQ ID NO: 21) (RQIKIWFQNRRMKWKKGGGWDTEIKDDVIEECNKHGGVHHHHHH; RRM3-derived synthetic sequence) |  |  |  |  | affected some Luminal and HER2+ subtypes | 
